Source: PubChem BioAssay AID2060505 (Molecular Pharmacology Branch, DTP, NCI, 2025)

System: 633275-114-R-J1-PDC complex spheroids, viability
Experiment: Anticancer human tumor 633275-114-R-J1-PDC patient-derived endometrial adenocarcinoma cell line growth inhibition [GQUAD]
Conditions: for IC50: curve of first compound; for viability, T/C: stronger effect = lower value
Procedure, shortened: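 Multi-cell-type spheroids of tumor cells with HUVEC and mesenchymal stem cells, treated with drug combinations. Concentrations descend in half-log steps from near clinical Cmax, or from 10 microM where Cmax is unknown; viability read-out.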

[1] = second compound 0.0316 µM, first compound 0.0316 µM
[2] = second compound 0.0316 µM, first compound 0.1 µM
[3] = second compound 0.0316 µM, first compound 0.316 µM
[4] = second compound 0.0316 µM, first compound 1 µM
[5] = second compound 0.0316 µM, first compound 3.16 µM
[6] = second compound 0.0316 µM, first compound 10 µM
[7] = second compound 0.1 µM, first compound 0.0316 µM
[8] = second compound 0.1 µM, first compound 0.1 µM
[9] = second compound 0.1 µM, first compound 0.316 µM
[10] = second compound 0.1 µM, first compound 1 µM
[11] = second compound 0.1 µM, first compound 3.16 µM
[12] = second compound 0.1 µM, first compound 10 µM
[13] = second compound 0.316 µM, first compound 0.0316 µM
[14] = second compound 0.316 µM, first compound 0.1 µM
[15] = second compound 0.316 µM, first compound 0.316 µM
[16] = second compound 0.316 µM, first compound 1 µM
[17] = second compound 0.316 µM, first compound 3.16 µM
[18] = second compound 0.316 µM, first compound 10 µM
[19] = second compound 1 µM, first compound 0.0316 µM
[20] = second compound 1 µM, first compound 0.1 µM
[21] = second compound 1 µM, first compound 0.316 µM
[22] = second compound 1 µM, first compound 1 µM
[23] = second compound 1 µM, first compound 3.16 µM
[24] = second compound 1 µM, first compound 10 µM
[25] = second compound 3.16 µM, first compound 0.0316 µM
[26] = second compound 3.16 µM, first compound 0.1 µM
[27] = second compound 3.16 µM, first compound 0.316 µM
[28] = second compound 3.16 µM, first compound 1 µM
[29] = second compound 3.16 µM, first compound 3.16 µM
[30] = second compound 3.16 µM, first compound 10 µM
[31] = second compound 10 µM, first compound 0.0316 µM
[32] = second compound 10 µM, first compound 0.1 µM
[33] = second compound 10 µM, first compound 0.316 µM
[34] = second compound 10 µM, first compound 1 µM
[35] = second compound 10 µM, first compound 3.16 µM
[36] = second compound 10 µM, first compound 10 µM
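Also: spheroids exposed to the agents for seven days.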
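For viability, T/C in this document: percent of DMSO vehicle control viability which is 100%.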

Q: With CC1COCCN1c1cc(C2(O)CC3CCC(C2)O3)c2cnn(-c3ccn[nH]3)c2n1 (centres undefined) + Cc1[nH]c2ccc(F)cc2c1-c1nc2c3cccnc3c3ncccc3c2[nH]1 as the molecule, how does the IC50 (second compound 0.0316 µM) read?
A: 99.9 nM

Q: And the IC50 (second compound 0.1 µM)?
A: 99.1 nM

Q: And the IC50 (second compound 0.316 µM)?
A: 90.4 nM

Q: And the IC50 (second compound 1 µM)?
A: 82.9 nM

Q: What about the IC50 (second compound 3.16 µM) of the same molecule?
A: 47.6 nM

Q: What about the IC50 (second compound 10 µM) of the same molecule?
A: 38.3 nM

Q: What about the viability, T/C [1] of the same molecule?
A: 80.1%

Q: And the viability, T/C [2]?
A: 49.7%

Q: And the viability, T/C [3]?
A: 31.2%

Q: And the viability, T/C [4]?
A: 20.5%

Q: And the viability, T/C [5]?
A: 14.6%

Q: And the viability, T/C [6]?
A: 9.97%

Q: What about the viability, T/C [7] of the same molecule?
A: 76.6%

Q: What about the viability, T/C [8] of the same molecule?
A: 50.4%

Q: What about the viability, T/C [9] of the same molecule?
A: 30%

Q: And the viability, T/C [10]?
A: 20.7%

Q: And the viability, T/C [11]?
A: 15.8%

Q: What about the viability, T/C [12] of the same molecule?
A: 10.3%

Q: What about the viability, T/C [13] of the same molecule?
A: 75.3%

Q: What about the viability, T/C [14] of the same molecule?
A: 46.9%

Q: And the viability, T/C [15]?
A: 30.2%

Q: And the viability, T/C [16]?
A: 21.3%

Q: And the viability, T/C [17]?
A: 15.4%

Q: What about the viability, T/C [18] of the same molecule?
A: 9.62%

Q: What about the viability, T/C [19] of the same molecule?
A: 70.6%

Q: And the viability, T/C [20]?
A: 46.3%

Q: What about the viability, T/C [21] of the same molecule?
A: 28.8%

Q: And the viability, T/C [22]?
A: 20.4%

Q: And the viability, T/C [23]?
A: 14.9%

Q: And the viability, T/C [24]?
A: 9.89%

Q: And the viability, T/C [25]?
A: 56.5%

Q: What about the viability, T/C [26] of the same molecule?
A: 37.9%

Q: And the viability, T/C [27]?
A: 26.5%

Q: What about the viability, T/C [28] of the same molecule?
A: 19.4%

Q: What about the viability, T/C [29] of the same molecule?
A: 14.7%

Q: And the viability, T/C [30]?
A: 9.57%

Q: What about the viability, T/C [31] of the same molecule?
A: 52.4%

Q: What about the viability, T/C [32] of the same molecule?
A: 38%

Q: And the viability, T/C [33]?
A: 25.7%

Q: What about the viability, T/C [34] of the same molecule?
A: 18.2%

Q: And the viability, T/C [35]?
A: 15.1%

Q: And the viability, T/C [36]?
A: 9.9%

Q: Cc1cccc(N(C)C(=O)C2C(O)CCN2c2nc(C)cc(C(F)(F)F)c2C#N)c1 (centres undefined) + Cc1[nH]c2ccc(F)cc2c1-c1nc2c3cccnc3c3ncccc3c2[nH]1 was tested. Which IC50 (second compound 0.0316 µM) did it give?
A: > 10000 nM

Q: And the IC50 (second compound 0.1 µM)?
A: > 10000 nM

Q: And the IC50 (second compound 0.316 µM)?
A: > 10000 nM

Q: And the IC50 (second compound 1 µM)?
A: > 10000 nM

Q: And the IC50 (second compound 3.16 µM)?
A: > 10000 nM

Q: What about the IC50 (second compound 10 µM) of the same molecule?
A: > 10000 nM

Q: And the viability, T/C [1]?
A: 108%

Q: What about the viability, T/C [2] of the same molecule?
A: 97.1%

Q: What about the viability, T/C [3] of the same molecule?
A: 103%

Q: What about the viability, T/C [4] of the same molecule?
A: 94%

Q: And the viability, T/C [5]?
A: 99.8%

Q: What about the viability, T/C [6] of the same molecule?
A: 99.4%

Q: And the viability, T/C [7]?
A: 99.2%

Q: And the viability, T/C [8]?
A: 99.9%

Q: What about the viability, T/C [9] of the same molecule?
A: 97.4%

Q: What about the viability, T/C [10] of the same molecule?
A: 94.3%

Q: What about the viability, T/C [11] of the same molecule?
A: 91.6%

Q: What about the viability, T/C [12] of the same molecule?
A: 101%

Q: What about the viability, T/C [13] of the same molecule?
A: 91.1%

Q: And the viability, T/C [14]?
A: 101%

Q: And the viability, T/C [15]?
A: 99.5%

Q: What about the viability, T/C [16] of the same molecule?
A: 98.9%

Q: And the viability, T/C [17]?
A: 98%

Q: What about the viability, T/C [18] of the same molecule?
A: 99.2%

Q: And the viability, T/C [19]?
A: 86.4%

Q: What about the viability, T/C [20] of the same molecule?
A: 86.2%

Q: And the viability, T/C [21]?
A: 90.1%

Q: What about the viability, T/C [22] of the same molecule?
A: 90.4%

Q: And the viability, T/C [23]?
A: 91.7%

Q: And the viability, T/C [24]?
A: 92.9%

Q: And the viability, T/C [25]?
A: 73.8%

Q: What about the viability, T/C [26] of the same molecule?
A: 71.6%

Q: What about the viability, T/C [27] of the same molecule?
A: 76.7%

Q: What about the viability, T/C [28] of the same molecule?
A: 74.4%

Q: And the viability, T/C [29]?
A: 79.3%

Q: What about the viability, T/C [30] of the same molecule?
A: 75.5%

Q: And the viability, T/C [31]?
A: 69.6%

Q: What about the viability, T/C [32] of the same molecule?
A: 77.7%

Q: What about the viability, T/C [33] of the same molecule?
A: 79.1%

Q: What about the viability, T/C [34] of the same molecule?
A: 72.6%

Q: And the viability, T/C [35]?
A: 69.8%

Q: What about the viability, T/C [36] of the same molecule?
A: 71.2%
